The record followed here is patent publication US7989438B2, “Therapeutic compounds” (Istituto di Ricerche di Biologia Molecolare P. Angeletti SpA, priority 2007, dated 2011).

Read-outs that look alike come from different tables or passages of the source.

The test has as its system HCV subgenomic replication. In words: Cell based HCV replication assay (subgenomic replicon in Huh-7 cells, NS3 Cell-ELISA). To be noted: activity ranges. From the text:
Cell clones that stably maintain subgenomic HCV replicon were obtained by transfecting Huh-7 cells with an RNA replicon identical to I377neo/NS3-3′/wt described by Lohmann et al. (1999) (EMBL-genbank No. AJ242652), followed by selection with neomycin sulfate (G418). Viral replication was monitored by measuring the expression of the NS3 protein by an ELISA assay performed directly on cells grown in 96 wells microtiter plates (Cell-ELISA) using the anti-NS3 monoclonal antibody 10E5/24 (as described in published International application WO 02/59321). Cells were seeded into 96 well plates at a density of 10^4 cells per well in a final volume of 0.1 ml of DMEM/10% FCS. Two hours after plating, 50 μl of DMEM/10% FCS containing a 3× concentration of inhibitor were added, cells were incubated for 96 hours and then fixed for 10 minutes with ice-cold isopropanol. Each condition was tested in duplicate and average absorbance values were used for calculations. The cells were washed twice with PBS, blocked with 5% non-fat dry milk in PBS+0.1% Triton X100+0.02% SDS (PBSTS) and then incubated o/n at 4° C. with the 10E5/24 mab diluted in Milk/PBSTS. After washing 5 times with PBSTS, the cells were incubated for 3 hours at room temperature with Fc specific anti-mouse IgG conjugated to alkaline phosphatase (Sigma), diluted in Milk/PBSTS. After washing again as above, the reaction was developed with p-Nitrophenyl phosphate disodium substrate (Sigma) and the absorbance at 405/620 nm read at intervals. For calculations, we used data sets where samples incubated without inhibitors had absorbance values comprised between 1 and 1.5. The inhibitor concentration that reduced by 50% the expression of NS3 (IC50) was calculated by fitting the data to the Hill equation, Fraction inhibition=1−(Ai−b)/(A0−b)=[I]^n/([I]^n+[…]) where: • Ai=absorbance value of HBI10 cells supplemented with the indicated inhibitor concentration. • A0=absorbance value of HBI10 cells incubated without inhibitor. • b=absorbance value of Huh-7 cells plated at the same density in the same microtiter plates and incubated without inhibitor. • n=Hill coefficient.

Where [1] appears, read: Table A, Huh-7 replicon cells, 96 hours, read-out: IC50 (nM), Inhibition of HCV subgenomic replication.
The mark [2] stands for this setting: Table 2, various macrocycles, read-out: IC50* (nM), Inhibition of HCV subgenomic replication.
Setting [3] is: Table 4, various macrocycles, read-out: IC50* (nM), Inhibition of HCV subgenomic replication.
Where [4] appears, read: Table 5, various macrocycles, read-out: IC50* (nM), Inhibition of HCV subgenomic replication.

The term IC50 denotes the midpoint of a concentration-inhibition curve.

Consider `CN1CCOC2COc3ccccc3-c3c(C4CCCCC4)c4ccc(cc4n3C2)C(=O)NS(=O)(=O)N(C)CC1` [Compound A7, (7S)-14-cyclohexyl-18,21-dimethyl-7,8-dihydro-6H-7,11-(epoxyethanoiminoethanoiminothioiminomethano)indolo[1,2-e][1,5]benzoxazocin-15-one 17,17-dioxide], for which the IC50 under setting [1] fell in the range of 25 to 150 nM.

Turning to `CCN1CCN(C)[C@H]2COc3cc(OCc4ccccn4)ccc3-c3c(C4CCCCC4)c4ccc(cc4n3C2)C(=O)NS(=O)(=O)N(C)CC1` [Example 211, (7R)-14-cyclohexyl-21-ethyl-18,24-dimethyl-3-(pyridin-2-ylmethoxy)-7,8-dihydro-6H-7,11-(epiminoethanoiminoethanoiminothioiminomethano)-indolo[1,2-e][1,5]benzoxazocin-15-one 17,17-dioxide], the half-maximal inhibitory concentration (IC50) under setting [2] is less than 25 nM.

As to `CCN1CCN(C)C2COc3ccccc3-c3c(C4CCCCC4)c4ccc(cc4n3C2)C(=O)NS(=O)(=O)N(C)CC1` [Compound A3, (7R)-14-cyclohexyl-21-ethyl-18,24-dimethyl-7,8-dihydro-6H-7,11-(epiminoethanoiminoethanoiminothioiminomethano)indolo[1,2-e][1,5]benzoxazocin-15-one 17,17-dioxide], the IC50 under setting [1] was less than 25 nM.

With `CCN1CCNC2COc3cc(F)ccc3-c3c(C4CCCCC4)c4ccc(cc4n3C2)C(=O)NS(=O)(=O)N(C)CC1` [Example 204, (7R)-14-cyclohexyl-21-ethyl-3-fluoro-18-methyl-7,8-dihydro-6H-7,11-(epiminoethanoiminoethanoiminothioiminomethano)-indolo[1,2-e][1,5]benzoxazocin-15-one 17,17-dioxide], the IC50 under setting [2] lay in the range of 25 to 150 nM.

For `CCN1CCN(C)C2COc3c(cccc3C(F)(F)F)-c3c(C4CCCCC4)c4ccc(cc4n3C2)C(=O)NS(=O)(=O)N(C)CC1` [Example 406, (7R)-14-cyclohexyl-21-ethyl-18,24-dimethyl-4-(trifluoromethyl)-7,8-dihydro-6H-7,11-(epiminoethanoiminoethanoiminothioiminomethano)-indolo[1,2-e][1,5]benzoxazocin-15-one 17,17-dioxide], the IC50 under setting [3] was 150 to 500 nM.

Turning to `CN1CCN(C)CC2Cn3c(c(C4CCCCC4)c4ccc(cc43)C(=O)NS(=O)(=O)N(C)CC1)-c1ccccc1N2C` (stereo not drawn) [Compound A9, 13-cyclohexyl-5,17,20,23-tetramethyl-6,7-dihydro-5H-10,6-(methanoiminothioiminoethanoiminoethanoiminomethano)indolo[1,2-d][1,4]benzodiazepin-14-one 16,16-dioxide], the IC50 under setting [1] was 25 to 150 nM.

In the case of `CN1CCCN(C)S(=O)(=O)NC(=O)c2ccc3c(C4CCCCC4F)c4n(c3c2)CC(CC1)COc1ccccc1-4` (single isomer, unassigned) [Example 501, 14-[(1R,2S) or (1S,2R)-2-fluorocyclohexyl]-18,22-dimethyl-7,8-dihydro-6H-7,11-(ethanoiminopropanoiminothioiminomethano)indolo[1,2-e][1,5]benzoxazocin-15-one 17,17-dioxide], under setting [4], the IC50 lay in the range of 25 to 150 nM.

`COc1ccc2c(c1)OCC1CCN(C)CCCN(C)S(=O)(=O)NC(=O)c3ccc4c(C5CCCCC5F)c-2n(c4c3)C1` (single isomer, unassigned) [Compound A38, 14-[(1R,2S) or (1S,2R)-2-fluorocyclohexyl]-3-methoxy-18,22-dimethyl-7,8-dihydro-6H-7,11-(ethanoiminopropanoiminothioiminomethano)indolo[1,2-e][1,5]benzoxazocin-15-one 17,17-dioxide]: the half-maximal inhibitory concentration (IC50) under setting [1] was less than 25 nM.

In the case of `CN1CCN2CCN(CC2)S(=O)(=O)NC(=O)c2ccc3c(C4CCCCC4)c4n(c3c2)C[C@@H]1COc1ccccc1-4` [Compound A6, (20R)-30-cyclohexyl-21-methyl-18-oxa-2-thia-1,3,10,21,24-pentaazahexacyclo[22.2.2.1^5,9.1^8,11.1^10,20.0^12,17]hentriaconta-5(31),6,8,11(30),12,14,16-heptaen-4-one 2,2-dioxide], the IC50 (Hepatitis C virus, Table A, Huh-7 replicon cells, 96 hours, read-out: IC50 (nM), Inhibition of HCV subgenomic replication) lay within 25 to 150 nM.

As to “(5R)-31-cyclohexyl-4,24-dimethyl-7-oxa-23-thia-1,4,15,22,24-pentaazahexacyclo[23.2.2.1^5,15.1^14,17.1^16,20.0^8,13]dotriaconta-8,10,12,14(31),16(30),17,19-heptaen-21-one 23,23-dioxide [Example 305]”, the IC50 (Table 3, various macrocycles, read-out: IC50* (nM), Inhibition of HCV subgenomic replication) was less than 25 nM.

As for `CC(C)CN1CCN(C)C2COc3ccccc3-c3c(C4CCCCC4)c4ccc(cc4n3C2)C(=O)NS(=O)(=O)N(C)CC1` [Example 104, (7R)-14-cyclohexyl-21-isobutyl-18,24-dimethyl-7,8-dihydro-6H-7,11-(epiminoethanoiminoethanoiminothioiminomethano)-indolo[1,2-e][1,5]benzoxazocin-15-one 17,17-dioxide], the 50% inhibitory concentration (IC50) (Table 1, 16 membered macrocycles, read-out: IC50* (nM), Inhibition of HCV subgenomic replication) was less than 25 nM.

`COc1cccc2c1OCC1Cn3c-2c(C2CCCCC2)c2ccc(cc23)C(=O)NS(=O)(=O)N(C)CCNCCN1C` [Compound A27, (7R)-14-cyclohexyl-4-methoxy-18,24-dimethyl-7,8-dihydro-6H-7,11-(epiminoethanoiminoethanoiminothioiminomethano)indolo[1,2-e][1,5]benzoxazocin-15-one 17,17-dioxide]: the half-inhibitory concentration (IC50) under setting [1] is less than 25 nM.

Consider `CN(C)CCN1CCOCCN(C)S(=O)(=O)NC(=O)c2ccc3c(C4CCCCC4)c4n(c3c2)CC1COc1ccccc1-4` [Example 402, (7R)-14-cyclohexyl-24-[2-(dimethylamino)ethyl]-18-methyl-7,8-dihydro-6H-7,11-(epiminoethanooxyethanoiminothioiminomethano)indolo[1,2-e][1,5]benzoxazocin-15-one 17,17-dioxide], for which, under setting [3], the half-maximal inhibitory concentration (IC50) was less than 25 nM.

In the case of `CN1CCC2COc3ccccc3-c3c([C@H]4CCCC[C@@H]4F)c4ccc(cc4n3C2)C(=O)NS(=O)(=O)N2CCC1CC2` (single isomer, unassigned) [Example 502, 30-[(1R,2S) or (1S,2R)-2-fluorocyclohexyl]-23-methyl-18-oxa-2-thia-1,3,10,23-tetraazahexacyclo[22.2.2.1^5,9.1^8,11.1^10,20.0^12,17]hentriaconta-5(31),6,8,11(30),12,14,16-heptaen-4-one 2,2-dioxide], the concentration for half-maximal inhibition (IC50) (Hepatitis C virus, Huh-7, Table 5, various macrocycles, read-out: IC50* (nM), Inhibition of HCV subgenomic replication) was in the range of 25 to 150 nM.

For the molecule `CCCc1cccc2c1OC[C@H]1Cn3c-2c(C2CCCCC2)c2ccc(cc23)C(=O)NS(=O)(=O)N(C)CCN(CC)CCN1C` [Compound A22, (7R)-14-cyclohexyl-21-ethyl-18,24-dimethyl-4-propyl-7,8-dihydro-6H-7,11-(epiminoethanoiminoethanoiminothioiminomethano)indolo[1,2-e][1,5]benzoxazocin-15-one 17,17-dioxide], under setting [1], the IC50 lay in the range of 25 to 150 nM.

In the case of `CN1CCN(Cc2cnn(C)c2)C2COc3ccccc3-c3c(C4CCCCC4)c4ccc(cc4n3C2)C(=O)NS(=O)(=O)N(C)CC1` [Example 409, (7R)-14-cyclohexyl-18,21-dimethyl-24-[(1-methyl-1H-pyrazol-4-yl)methyl]-7,8-dihydro-6H-7,11-(epiminoethanoiminoethanoiminothioiminomethano)-indolo[1,2-e][1,5]benzoxazocin-15-one 17,17-dioxide], under setting [3], the IC50 was less than 25 nM.

As for `CCN1CCN(CCO)[C@H]2COc3cc(C)ccc3-c3c(C4CCCCC4)c4ccc(cc4n3C2)C(=O)NS(=O)(=O)N(C)CC1` [Example 214, (7R)-14-cyclohexyl-21-ethyl-24-(2-hydroxyethyl)-3,18-dimethyl-7,8-dihydro-6H-7,11-(epiminoethanoiminoethanoiminothioiminomethano)-indolo[1,2-e][1,5]benzoxazocin-15-one 17,17-dioxide], the IC50 under setting [2] was less than 25 nM.

In the case of `CN1CCCN(CCO)CCC2COc3ccccc3-c3c(C4CCCCC4)c4ccc(cc4n3C2)C(=O)NS1(=O)=O` (single isomer, unassigned) [Example 507, (7R) or (7S)-14-cyclohexyl-22-(2-hydroxyethyl)-18-methyl-7,8-dihydro-6H-7,11-(ethanoiminopropanoiminothioiminomethano)indolo[1,2-e][1,5]benzoxazocin-15-one 17,17-dioxide], the half-maximal inhibitory concentration (IC50) under setting [4] is less than 25 nM.
